pIC50: −log10 of the molar value.
What follows are molecules tested against ERK2 enzyme (Homo sapiens (Human), UniProt P28482) (assay: Inhibition assay of ERK (Z'-LYTE kinase assay, Ser/Thr 3 peptide substrate)). Conditions: In vitro ERK2 enzyme, 100 μM ATP.
Sequence of ERK2 enzyme (P28482 whole entry): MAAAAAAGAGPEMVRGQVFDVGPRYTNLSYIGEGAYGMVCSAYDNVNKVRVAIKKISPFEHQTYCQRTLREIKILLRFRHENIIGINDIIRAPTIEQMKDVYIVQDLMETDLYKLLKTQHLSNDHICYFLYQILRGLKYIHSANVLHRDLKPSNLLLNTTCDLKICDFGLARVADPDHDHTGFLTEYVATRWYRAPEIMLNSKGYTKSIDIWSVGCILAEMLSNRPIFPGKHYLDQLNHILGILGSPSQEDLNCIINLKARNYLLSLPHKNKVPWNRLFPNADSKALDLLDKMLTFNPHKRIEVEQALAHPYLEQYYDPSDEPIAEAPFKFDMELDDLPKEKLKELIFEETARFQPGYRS
Type: biochemical
With `Cc1cc(-c2n[nH]c3cc4c(cc23)CN(Cc2cccc(C#N)c2)C(=O)N4)ccn1` [Compound 55] the pIC50 was greater than 7.30. Work on `Cc1cc(-c2n[nH]c3cc4c(cc23)CN([C@@H]2CCCN(CC3CCOCC3)C2)C(=O)N4)ccn1` [Compound 135] yielded a pIC50 of 6.60 to 7.30. Work on `O=C1Nc2cc3[nH]nc(-c4cn[nH]c4)c3cc2CN1Cc1cccc(Cl)c1` [Compound 60] yielded a pIC50 greater than 7.30. With `COc1ncc(-c2n[nH]c3cc4c(cc23)CN(CC2CCN(CC3CC3)CC2)C(=O)N4)cn1` [Compound 82] the pIC50 was 6.00 to 6.60. `Cc1cc(-c2n[nH]c3cc4[nH]c(=O)n(Cc5ccc(F)c(Cl)c5)c(=O)c4cc23)ccn1` [Compound 15] showed a pIC50 of 6.60 to 7.30. Work on `COc1ncc(-c2n[nH]c3cc4c(cc23)CN(C)CC(=O)N4)cn1` [Compound 109] yielded a pIC50 of less than 6.00. `Cc1cccc(-c2n[nH]c3cc4c(cc23)CN(Cc2cccc(Cl)c2)C(=O)N4)n1` [Compound 108] showed a pIC50 of 6.60 to 7.30. Molecule `O=C1Nc2cc3[nH]nc(-c4cccnc4)c3cc2CN1Cc1cccc(Cl)c1` [Compound 57] has a pIC50 greater than 7.30. Work on `Cc1cc(-c2n[nH]c3cc4[nH]c(=O)c(Cc5ccc(F)cc5)cc4cc23)ccn1` [Compound 21] yielded a pIC50 of 6.60 to 7.30. `Cc1cc(-c2n[nH]c3cc4c(cc23)CN([C@@H]2CCCN(Cc3cc(C5CC5)on3)C2)C(=O)N4)ccn1` [Compound 188] showed a pIC50 greater than 7.30. Molecule `Cc1cc(-c2n[nH]c3cc4c(cc23)CN([C@@H]2CCCN(Cc3cncnc3)C2)C(=O)N4)ccn1` [Compound 166] has a pIC50 greater than 7.30. In the case of `Cc1cc(-c2n[nH]c3cc4c(cc23)CN(CCN)C(=O)N4)ccn1` [Compound 83], the pIC50 was greater than 7.30. `Cc1cc(-c2n[nH]c3cc4c(cc23)CN([C@@H]2CCCN(Cc3sc(C)nc3C)C2)C(=O)N4)ccn1` [Compound 195] gave a pIC50 of 6.60 to 7.30. Work on `COc1ccc(-c2n[nH]c3cc4c(cc23)CN(Cc2cc(F)cc(F)c2)C(=O)N4)cn1` [Compound 92] yielded a pIC50 greater than 7.30. With `Cc1cc(-c2n[nH]c3cc4[nH]c(=O)c([C@H](C)c5ccccc5)cc4cc23)ccn1` [Compound 84] the pIC50 was greater than 7.30. Molecule `O=C1Nc2cc3[nH]nc(-c4ccnnc4)c3cc2CN1CCc1ccc(F)cc1` [Compound 110] has a pIC50 greater than 7.30. For `O=C1Nc2cc3[nH]nc(-c4ccnnc4)c3cc2CN1Cc1cc(F)cc(F)c1` [Compound 127], the pIC50 was greater than 7.30. `CCC(=O)NCCCN1Cc2cc3c(-c4cnc(OC)nc4)n[nH]c3cc2NC1=O` [Compound 105] gave a pIC50 greater than 7.30. With `Cc1cc(-c2n[nH]c3cc4c(cc23)CN([C@@H]2CCCN(CCc3cccc(Cl)c3)C2)C(=O)N4)ccn1` [Compound 164] the pIC50 was greater than 7.30. For `Cc1cc(-c2n[nH]c3cc4c(cc23)CN([C@@H]2CCCN(Cc3ccc(F)c(F)c3)C2)C(=O)N4)ccn1` [Compound 190], the pIC50 was greater than 7.30. Work on `Cc1cc(-c2n[nH]c3cc4[nH]c(=O)c(C(C)C5CCCCC5)cc4cc23)ccn1` (centres unmarked) [Compound 160] yielded a pIC50 of 6.60 to 7.30. For `Cc1cc(-c2n[nH]c3cc4c(cc23)CN([C@H](CO)c2cccc(Cl)c2)C(=O)N4)ccn1` [Compound 26], the pIC50 was greater than 7.30. With `COc1ncc(-c2n[nH]c3cc4c(cc23)CN([C@@H]2CCCN(Cc3ccccc3)C2)C(=O)N4)cn1` [Compound 104] the pIC50 was greater than 7.30. For `COc1cc(-c2n[nH]c3cc4c(cc23)CN(Cc2ccc(F)c(Cl)c2)C(=O)N4)ccn1` [Compound 38], the pIC50 was greater than 7.30. `O=C1Nc2cc3[nH]nc(-c4ccnnc4)c3cc2CN1[C@@H]1CCCN(Cc2ccccc2)C1` [Compound 120] gave a pIC50 greater than 7.30. Molecule `Nc1ncc(-c2n[nH]c3cc4c(cc23)CN(Cc2cccc(Cl)c2)C(=O)N4)cn1` [Compound 93] has a pIC50 greater than 7.30. Work on `O=C1Nc2cc3[nH]nc(-c4ccnnc4)c3cc2CN1Cc1ccc(F)cc1F` [Compound 114] yielded a pIC50 greater than 7.30. For `COc1ncc(-c2n[nH]c3cc4c(cc23)CN([C@H](C)c2ccc(Cl)cc2)C(=O)N4)cn1` [Compound 95], the pIC50 was greater than 7.30. Work on `COc1ncc(-c2n[nH]c3cc4c(cc23)CN(Cc2ccc(F)cc2F)C(=O)N4)cn1` [Compound 99] yielded a pIC50 greater than 7.30. Work on `COc1ncc(-c2n[nH]c3cc4c(cc23)CN(CCc2ccc(F)cc2)C(=O)N4)cn1` [Compound 80] yielded a pIC50 greater than 7.30.

Same assay, conditions: In vitro, ERK2 enzyme 0.47 ng/μL, 100 μM ATP
`Cc1cc(-c2n[nH]c3cc4c(cc23)CN([C@@H]2CCCN(c3ccc(F)cn3)C2)C(=O)N4)ccn1` [Compound 199] gave a pIC50 greater than 7.30. With `COc1ccc(-c2n[nH]c3cc4c(cc23)CN([C@@H]2CN(CC(F)(F)F)C[C@H]2c2ccccc2)C(=O)N4)cn1` [Compound 374] the pIC50 was greater than 7.30. Molecule `Cc1cc(-c2n[nH]c3cc4c(cc23)CN([C@@H]2CCCN(Cc3ccc(F)s3)C2)C(=O)N4)ccn1` [Compound 290] has a pIC50 greater than 7.30. Molecule `Cc1cc(-c2n[nH]c3cc4c(cc23)CN(CCC2CCOCC2)C(=O)N4)ccn1` [Compound 220] has a pIC50 greater than 7.30. `Cc1cc(-c2n[nH]c3cc4c(cc23)CN([C@@H]2CN(C3CCOCC3)C[C@H]2c2ccccc2)C(=O)N4)ccn1` (mixture of isomers) [Compound 359] gave a pIC50 of 6.60 to 7.30. `Cc1cc(-c2n[nH]c3cc4c(cc23)CN(Cc2ccccc2)C(=O)N4)ccn1` [Compound 372] showed a pIC50 greater than 7.30. For `Cc1cc(-c2n[nH]c3cc4c(cc23)CN([C@@H]2CN(CC(F)(F)F)C[C@H]2c2cccs2)C(=O)N4)ccn1` (mixture of isomers) [Compound 321], the pIC50 was greater than 7.30. `Cc1cc(-c2n[nH]c3cc4c(cc23)CN([C@@H]2CCN(c3cccc(Cl)c3)C2)C(=O)N4)ccn1` [Compound 249] was tested, and the pIC50 was 6.60 to 7.30. `Cc1cc(-c2n[nH]c3cc4c(cc23)CN([C@@H]2CN(CC(F)(F)F)C[C@H]2c2ccc(F)cc2)C(=O)N4)ccn1` (racemic) [Compound 300] gave a pIC50 greater than 7.30. In the case of `Cc1cc(-c2n[nH]c3cc4c(cc23)CN([C@@H]2CNC[C@H]2c2ccccc2)C(=O)N4)ccn1` (racemic) [Compound 223], the pIC50 was greater than 7.30. Work on `Cc1ncc(-c2n[nH]c3cc4c(cc23)CN([C@@H]2CCCN(Cc3ccccc3)C2)C(=O)N4)cn1` [Compound 292] yielded a pIC50 greater than 7.30. `O=C1Nc2cc3[nH]nc(-c4ccncc4)c3cc2CN1[C@@H]1CN(CC(F)(F)F)C[C@H]1c1ccccc1` [Compound 342] gave a pIC50 greater than 7.30. Work on `Cc1cc(-c2n[nH]c3cc4[nH]c(=O)c(C(CO)c5ccccc5)cc4cc23)ccn1` (centres unmarked) [Compound 328] yielded a pIC50 greater than 7.30. Molecule `Cc1cc(-c2n[nH]c3cc4c(cc23)CN(Cc2ccccc2Cl)C(=O)N4)ccn1` [Compound 217] has a pIC50 greater than 7.30. With `Cc1cc(-c2n[nH]c3cc4c(cc23)CN(C2CN(CC3CC3)C2)C(=O)N4)ccn1` [Compound 198] the pIC50 was 6.00 to 6.60. With `Cc1cc(-c2n[nH]c3cc4c(cc23)CN(C2CCC(=O)N(Cc3ccccc3)C2)C(=O)N4)ccn1` (centres unmarked) [Compound 232] the pIC50 was greater than 7.30. Molecule `Cc1cc(-c2n[nH]c3cc4c(cc23)CN([C@@H]2CCC[C@@H](NCc3ccccc3)C2)C(=O)N4)ccn1` [Compound 313] has a pIC50 greater than 7.30. In the case of `COc1ccc(-c2n[nH]c3cc4c(cc23)CN([C@@H]2CCCN(Cc3ccccc3)C2)C(=O)N4)cn1` [Compound 272], the pIC50 was greater than 7.30. For `Cc1cc(-c2n[nH]c3cc4c(cc23)CN([C@@H]2CN(CCC#N)C[C@H]2c2ccccc2)C(=O)N4)ccn1` (mixture of isomers) [Compound 356], the pIC50 was greater than 7.30. For `Cc1cc(-c2n[nH]c3cc4c(cc23)CN([C@H]2CCN(CC(F)(F)F)C2)C(=O)N4)ccn1` [Compound 299], the pIC50 was greater than 7.30. `CC(c1ccccc1)c1cc2cc3c(N4CCN(C)CC4)n[nH]c3cc2[nH]c1=O` (centres unmarked) [Compound 358] showed a pIC50 of 6.60 to 7.30. Molecule `CC(c1ccccc1)c1cc2cc3c(-c4cnc(N)nc4)n[nH]c3cc2[nH]c1=O` (centres unmarked) [Compound 334] has a pIC50 greater than 7.30. Work on `Cc1cc(-c2n[nH]c3cc4c(cc23)CN(CC2CCC2)C(=O)N4)ccn1` [Compound 253] yielded a pIC50 greater than 7.30. With `Cc1cc(-c2n[nH]c3cc4c(cc23)CN([C@@H]2CN(CC#N)C[C@H]2c2ccccc2)C(=O)N4)ccn1` (mixture of isomers) [Compound 366] the pIC50 was greater than 7.30. `Cc1cc(-c2n[nH]c3cc4c(cc23)CN([C@@H]2CN(C)C[C@H]2c2ccccc2)C(=O)N4)cc(C)n1` (racemic) [Compound 248] was tested, and the pIC50 was greater than 7.30. Work on `Cc1cc(-c2n[nH]c3cc4c(cc23)CN([C@@H]2CCCN(CC(O)C(C)(C)C)C2)C(=O)N4)ccn1` (some centres unmarked) [Compound 236] yielded a pIC50 of 6.60 to 7.30. With `COc1ncc(-c2n[nH]c3cc4c(cc23)CN([C@@H]2CN(CC(F)(F)F)C[C@H]2c2ccccc2)C(=O)N4)cn1` [Compound 348] the pIC50 was greater than 7.30. With `COc1ncc(-c2n[nH]c3cc4c(cc23)CN([C@@H]2CN(C)C[C@H]2c2ccccc2)C(=O)N4)cn1` (mixture of isomers) [Compound 355] the pIC50 was greater than 7.30. `O=C1Nc2cc3[nH]nc(-c4ccc(N5CCOCC5)nc4)c3cc2CN1Cc1cccc(Cl)c1` [Compound 231] showed a pIC50 greater than 7.30. `Cc1cc(-c2n[nH]c3cc4[nH]c(=O)c(C5CCCC5)cc4cc23)ccn1` [Compound 289] was tested, and the pIC50 was greater than 7.30. `Cc1cc(-c2n[nH]c3cc4c(cc23)CN([C@@H]2CCCN(C(C)C)C2)C(=O)N4)ccn1` [Compound 247] gave a pIC50 greater than 7.30. Molecule `Cc1ncc(-c2n[nH]c3cc4c(cc23)CN([C@@H]2CCN(CC(F)(F)F)C2)C(=O)N4)cn1` [Compound 282] has a pIC50 greater than 7.30. In the case of `Cc1cc(-c2n[nH]c3cc4c(cc23)CN([C@@H]2CCCN(CC(F)(F)F)C2)C(=O)N4)cc(C)n1` [Compound 244], the pIC50 was greater than 7.30. With `COc1ccc(-c2n[nH]c3cc4c(cc23)CN([C@@H]2CCN(CC(F)(F)F)C2)C(=O)N4)cn1` [Compound 277] the pIC50 was greater than 7.30. `Cc1ccc(-c2n[nH]c3cc4[nH]c(=O)c(C5CCCN(Cc6ccccc6)C5)cc4cc23)cn1` (centres unmarked) [Compound 373] was tested, and the pIC50 was 6.60 to 7.30. With `COc1cc(-c2n[nH]c3cc4c(cc23)CN([C@@H]2CN(C)C[C@H]2c2ccccc2)C(=O)N4)ccn1` (mixture of isomers) [Compound 354] the pIC50 was greater than 7.30. `Cn1nccc1-c1n[nH]c2cc3c(cc12)CN(Cc1cccc(Cl)c1)C(=O)N3` [Compound 235] gave a pIC50 of 6.60 to 7.30. Work on `Cc1cc(-c2n[nH]c3cc4c(cc23)CN(CCC2CC2)C(=O)N4)ccn1` [Compound 283] yielded a pIC50 of 6.60 to 7.30. In the case of `CC(c1ccccc1)c1cc2cc3c(-c4cccnc4)n[nH]c3cc2[nH]c1=O` (centres unmarked) [Compound 330], the pIC50 was greater than 7.30. For `Cc1cc(-c2n[nH]c3cc4c(cc23)CN([C@@H]2CN(CC(F)(F)F)C[C@H]2c2ccccc2)C(=O)N4)ccn1` [Compound 304], the pIC50 was greater than 7.30. In the case of `Cn1nccc1-c1n[nH]c2cc3c(cc12)CN([C@@H]1CN(CC(F)(F)F)C[C@H]1c1ccccc1)C(=O)N3` [Compound 350], the pIC50 was 6.00 to 6.60.

Source: patent publication US9624228B2, “Inhibitors of ERK and methods of use” (KURA ONCOLOGY, INC., priority 2013, dated 2017)
